Laboratory results as given in patent US11559544B2, “Combination of a MAPK/ERK pathway inhibitor and a glycosaminoglycan for the treatment of cancer” (CELL RECEPTOR AG, priority 2017, dated 2023).

Key:
[1] = test system: colorectal cancer cell lines COL0205 and HCT116 resistant to PD184352; assay: Growth of CI-1040 (PD184352)-resistant cancerous cells co-incubated daily with platelets (Example 2); type: cell-based; conditions: serum-free, platelets 30 minutes each day; for fate of cell population incubated with MEK inhibitor and PPS or DXS: in the presence of CI-1040 (PD184352)
Experimental: (§1) Three populations of cells are cultivated in the presence of the inhibitor under serum-free conditions.
(§2) For a first population of the cells PPS is added to the cell culture dishes, while for a second population, i.e. the control cells, no PPS is added.
(§3) For a third population of the cells DXS is added to the cell culture dishes.
(§4) Each day all cell populations are co-incubated with platelets for 30 minutes, which are subsequently washed away.
The second experiment is performed as described for Example 1 except that cells are cultivated in the presence of the MEK inhibitor CI-1040 (PD184352).
As described in Little et al. 2011 in detail cancerous cells that have developed a resistance against the MEK inhibitor PD184352 are generated by growing colorectal cancer cell lines harboring mutations in BRAF (COL0205) or KRAS (HCT116) in the presence of increasing concentrations of […] without clonal selection until they grow apparently normally in 1 μm, 2 μM or […].
For each of the cancerous cells lines that have developed a resistance against the MEK inhibitor CI-1040 (PD184352) the cultivation steps as in Example 1 are performed, except that the cells are cultivated in the presence of the MEK inhibitor CI-1040 (PD184352).

[2] = test system: melanoma cell line A375 resistant to dabrafenib; assay: Growth of dabrafenib-resistant cancerous cells co-incubated daily with platelets (Example 6); type: cell-based, human; conditions: serum-free, platelets 30 minutes each day; for fate of cell population incubated with Raf inhibitor and PPS or DXS: in the presence of dabrafenib
Experimental: as §1, §2, §3, §4
The sixth experiment is performed as described for Example 1 except that cells that have developed a resistance against the Raf inhibitor dabrafenib are used and cultivated in the presence of the Raf inhibitor dabrafenib.
As described in Caparorali et al. 2011 in detail cancerous cells that have developed a resistance against the Raf inhibitor dabrafenib are generated by growing the human melanoma cell line A375 in gradually increasing concentrations of dabrafenib (from 1 nM up to 1.5 μM) over a period of 4 months and subsequently maintaining the dabrafenib-resistance cell lines in CM supplemented with 1.5 μM dabrafenib.
For each of the cancerous cells lines that have developed a resistance against the Raf inhibitor dabrafenib the cultivation steps as in Example 1 are performed, except that the cells are cultivated in the presence of the Raf inhibitor dabrafenib.

[3] = test system: Hepatocellular carcinoma (HCC) Huh7 cells resistant to sorafenib; assay: Growth of sorafenib-resistant cancerous cells co-incubated daily with platelets (Example 5); type: cell-based, human; conditions: serum-free, platelets 30 minutes each day; for fate of cell population incubated with Raf inhibitor and PPS or DXS: in the presence of sorafenib
Experimental: as §1, §2, §3, §4
The fifth experiment is performed as described for Example 1 except that cells that have developed a resistance against the Raf inhibitor sorafenib are used and cultivated in the presence of the Raf inhibitor sorafenib.
As described in Chen et al. 2011 in detail cancerous cells that have developed a resistance against the Raf inhibitor sorafenib are generated by growing the human Hepatocellular carcinoma (HCC) Huh7 in a long term exposure to sorafenib.
For each of the cancerous cells lines that have developed a resistance against the Raf inhibitor sorafenib the cultivation steps as in Example 1 are performed, except that the cells are cultivated in the presence of the Raf inhibitor sorafenib.

[4] = test system: colorectal cancer cell lines COL0205, HT29, HCT116 and LoVo resistant to Selumetinib; assay: Growth of Selumetinib-resistant cancerous cells co-incubated daily with platelets (Example 1); type: cell-based; conditions: in the presence of Selumetinib, serum-free, platelets 30 minutes each day
Experimental: The experiment is performed on cancerous cells that have developed a resistance against the MEK inhibitor Selumetinib. As described in Little et al. 2011 in detail cancerous cells that have developed a resistance against the MEK inhibitor Selumetinib are generated by growing colorectal cancer cell lines harboring mutations in BRAF (COL0205 and HT29 lines) or KRAS (HCT116 and LoVo lines) in the presence of increasing concentrations of AZD6244 (Selumetinib) without clonal selection until they grow apparently normally in 1 μm, 2 μM or 4 μM of the drug.
For each of the cancerous cells lines that have developed a resistance against the MEK inhibitor Selumetinib the following steps are performed:
as §1, §2, §3, §4
Control cells in the growth cycle express platelet receptors on their surface. Platelets adhere to the control cells and release growth factors from their alpha granules. The control cells will take up the factors and proceed through the cell cycle, even in the presence of the MEK inhibitor.

[5] = test system: NRAS mutant melanoma cell lines DO4 and MM415 resistant to trametinib; assay: Growth of trametinib-resistant cancerous cells co-incubated daily with platelets (Example 3); type: cell-based, Human; conditions: in the presence of trametinib, serum-free, platelets 30 minutes each day
Experimental: as §1, §2, §3, §4
The third experiment is performed as described for Example 1 except that cells that have developed a resistance against the MEK inhibitor trametinib (GSK1120212) are used and cultivated in the presence of the MEK inhibitor trametinib.
As described in Vujic et al. 2014 in detail cancerous cells that have developed a resistance against the MEK inhibitor trametinib are generated by growing Human NRAS mutant melanoma cell lines DO4 and MM415 in the presence of increased concentrations of trametinib (GSK1120212) over a period of approximately 6 months.
For each of the cancerous cell lines that have developed a resistance against the MEK inhibitor trametinib the cultivation steps as in Example 1 are performed, except that the cells are cultivated in the presence of the MEK inhibitor trametinib.

[6] = test system: cancerous cells resistant against an RTK inhibitor; assay: Growth of RTK inhibitor-resistant cancerous cells co-incubated daily with platelets (Example 7); type: cell-based; conditions: in the presence of the RTK inhibitor, serum-free, platelets 30 minutes each day
Experimental: as §1, §2, §3, §4
The seventh experiment is performed as described for Example 1, except that the cancerous cells are resistant against an RTK inhibitor and the three populations of cells are cultivated in the presence of the RTK inhibitor.

[7] = test system: melanoma cell line SK-MEL-28 (BRAF V600E) resistant to vemurafenib; assay: Growth of vemurafenib-resistant cancerous cells co-incubated daily with platelets (Example 4); type: cell-based; conditions: in the presence of vemurafenib, serum-free, platelets 30 minutes each day
Experimental: as §1, §2, §3, §4

[8] = fraction of Heparin's activity; cited from earlier work

Compound | fate of cell population incubated with Raf inhibitor and PPS or DXS [3] | fate of cell population incubated with MEK inhibitor and PPS or DXS [1] | adherence of platelets to the cancerous cells [4] | fate of cell population incubated with MEK inhibitor and PPS or DXS [4] | fate of cell population incubated with Raf inhibitor and PPS or DXS [2] | fate of cell population incubated with MEK inhibitor and PPS or DXS [5] | fate of cell population incubated with RTK inhibitor and PPS or DXS [6] | fate of cell population incubated with Raf inhibitor and PPS or DXS [7] | also measured
O=C(NOCC1CC1)c1ccc(F)c(F)c1Nc1ccc(I)cc1Cl [CI-1040] |  |  |  |  |  |  |  |  | growth of control cells with MEK inhibitor alone (no PPS/DXS) ([1]; CI-1040 (PD184352) alone): continue to grow and divide
CC(C)(C)c1nc(-c2cccc(NS(=O)(=O)c3c(F)cccc3F)c2F)c(-c2ccnc(N)n2)s1 [dabrafenib] |  |  |  |  |  |  |  |  | growth of control cells with Raf inhibitor alone (no PPS/DXS) ([2]; dabrafenib alone): continue to grow and divide
CNC(=O)c1cc(Oc2ccc(NC(=O)Nc3ccc(Cl)c(C(F)(F)F)c3)cc2)ccn1 [sorafenib] |  |  |  |  |  |  |  |  | growth of control cells with Raf inhibitor alone (no PPS/DXS) ([3]; sorafenib alone): continue to grow and divide
Dextran sulfate [DXS] | perish | perish | prevents the platelet from adhering to the cancerous cells | perish | perish | perish | perish | perish | 
Pentosan polysulfate [PPS] | perish | perish | prevents the platelet from adhering to the cancerous cells | perish | perish | perish | perish | perish | anticoagulant activity relative to that of Heparin [8]: 1/15
